Measurements: ChEMBL document CHEMBL1154822, “Synthesis and antiproliferative activity of 7-azaindirubin-3'-oxime, a 7-aza isostere of the natural indirubin pharmacophore” (J Nat Prod, 2009)

Experiments:
OVCAR-8 [1] = experiment: Cytotoxicity against human OVCAR8 cells assessed as cell growth at 1 uM after 1 to 11 days by MTT assay; format: functional; details: read-out: Activity
ACHN [2] = experiment: Cytotoxicity against human ACHN cells assessed as cell growth at 1 uM after 1 to 11 days by MTT assay; format: functional; details: read-out: Activity
SN12C = experiment: Cytotoxicity against human SN12C cells assessed as cell growth at 1 uM after 1 to 11 days by MTT assay; format: functional; details: read-out: Activity
MCF7 = experiment: Cytotoxicity against human MCF7 cells assessed as cell growth at 1 uM after 1 to 11 days by MTT assay; format: functional; details: read-out: Activity
SK-MEL-28 [3] = experiment: Cytotoxicity against human SK-MEL-28 cells assessed as cell growth at 10 uM after 1 to 11 days by MTT assay; format: functional; details: read-out: Activity
UACC-257 = experiment: Cytotoxicity against human UACC257 cells assessed as cell growth at 10 uM after 1 to 11 days by MTT assay; format: functional; details: read-out: Activity
UACC-62 [4] = experiment: Cytotoxicity against human UACC62 cells assessed as cell growth at 10 uM after 1 to 11 days by MTT assay; format: functional; details: read-out: Activity
A498 [5] = experiment: Cytotoxicity against human A498 cells assessed as cell growth at 10 uM after 1 to 11 days by MTT assay; format: functional; details: read-out: Activity
RXF 393 = experiment: Cytotoxicity against human […] cells assessed as cell growth at 10 uM after 1 to 11 days by MTT assay; format: functional; details: read-out: Activity
A549 = experiment: Cytotoxicity against human A549 cells assessed as cell growth at 10 uM after 1 to 11 days by MTT assay; format: functional; details: read-out: Activity
NCI-H522 [6] = experiment: Cytotoxicity against human NCI-H522 cells assessed as cell growth at 10 uM after 1 to 11 days by MTT assay; format: functional; details: read-out: Activity
HCC 2998 = experiment: Cytotoxicity against human HCC2998 cells assessed as cell growth at 10 uM after 1 to 11 days by MTT assay; format: functional; details: read-out: Activity
SK-MEL-5 = experiment: Cytotoxicity against human SK-MEL-5 cells assessed as cell growth at 100 uM after 1 to 11 days by MTT assay; format: functional; details: read-out: Activity
UACC-62 [7] = experiment: Cytotoxicity against human UACC62 cells assessed as cell growth at 100 uM after 1 to 11 days by MTT assay; format: functional; details: read-out: Activity
BT-549 = experiment: Cytotoxicity against human BT549 cells assessed as cell growth at 10 uM after 1 to 11 days by MTT assay; format: functional; details: read-out: Activity
NCI-H522 [8] = experiment: Cytotoxicity against human NCI-H522 cells assessed as cell growth at 100 uM after 1 to 11 days by MTT assay; format: functional; details: read-out: Activity
SF-268 = experiment: Cytotoxicity against human SF268 cells assessed as cell growth at 100 uM after 1 to 11 days by MTT assay; format: functional; details: read-out: Activity
SNB-19 [9] = experiment: Cytotoxicity against human SNB19 cells assessed as cell growth at 100 uM after 1 to 11 days by MTT assay; format: functional; details: read-out: Activity
OVCAR-3 = experiment: Cytotoxicity against human OVCAR-3 cells assessed as cell growth at 100 uM after 1 to 11 days by MTT assay; format: functional; details: read-out: Activity
MDA-MB-231 [10] = experiment: Cytotoxicity against human MDA-MB-231 cells assessed as cell growth at 100 uM after 1 to 11 days by MTT assay; format: functional; details: read-out: Activity
SR = experiment: Cytotoxicity against human SR cells assessed as cell growth at 1 mM after 1 to 11 days by MTT assay; format: functional; details: read-out: Activity
HOP-92 [11] = experiment: Cytotoxicity against human HOP92 cells after 1 to 11 days by MTT assay; format: functional
COLO 205 = experiment: Cytotoxicity against human COLO205 cells after 1 to 11 days by MTT assay; format: functional
HCT-15 = experiment: Cytotoxicity against human HCT15 cells after 1 to 11 days by MTT assay; format: functional
SNB-75 = experiment: Cytotoxicity against human SNB75 cells after 1 to 11 days by MTT assay; format: functional
LOX IMVI = experiment: Cytotoxicity against human LOXIMVI cells after 1 to 11 days by MTT assay; format: functional
M14 = experiment: Cytotoxicity against human M14 cells after 1 to 11 days by MTT assay; format: functional
OVCAR-8 [12] = experiment: Cytotoxicity against human OVCAR8 cells assessed as cell growth at 1 mM after 1 to 11 days by MTT assay; format: functional; details: read-out: Activity
786-0 = experiment: Cytotoxicity against human 786-0 cells assessed as cell growth at 1 mM after 1 to 11 days by MTT assay; format: functional; details: read-out: Activity
A498 [13] = experiment: Cytotoxicity against human A498 cells assessed as cell growth at 1 mM after 1 to 11 days by MTT assay; format: functional; details: read-out: Activity
MDA-MB-231 [14] = experiment: Cytotoxicity against human MDA-MB-231 cells assessed as cell growth at 1 mM after 1 to 11 days by MTT assay; format: functional; details: read-out: Activity
SK-MEL-28 [15] = experiment: Cytotoxicity against human SK-MEL-28 cells after 1 to 11 days by MTT assay; format: functional
T47D = experiment: Cytotoxicity against human T47D cells after 1 to 11 days by MTT assay; format: functional
MDA-MB-468 = experiment: Cytotoxicity against human MDA-MB-468 cells after 1 to 11 days by MTT assay; format: functional
[16] = target: Glycogen synthase kinase-3 beta (Homo sapiens) (UniProt P49841); experiment: Inhibition of human GSK3-beta assessed as residual enzyme activity at 3 uM after 40 mins by scintillation counting
RPMI-8226 = experiment: Cytotoxicity against human RPMI8226 cells assessed as cell growth at 0.1 uM after 1 to 11 days by MTT assay; format: functional; details: read-out: Activity
SNB-19 [17] = experiment: Cytotoxicity against human SNB19 cells assessed as cell growth at 0.1 uM after 1 to 11 days by MTT assay; format: functional; details: read-out: Activity
HOP-92 [18] = experiment: Cytotoxicity against human HOP92 cells assessed as cell growth at 0.1 uM after 1 to 11 days by MTT assay; format: functional; details: read-out: Activity
OVCAR-5 = experiment: Cytotoxicity against human OVCAR5 cells assessed as cell growth at 0.1 uM after 1 to 11 days by MTT assay; format: functional; details: read-out: Activity
ACHN [19] = experiment: Cytotoxicity against human ACHN cells assessed as cell growth at 0.1 uM after 1 to 11 days by MTT assay; format: functional; details: read-out: Activity
HOP-62 = experiment: Cytotoxicity against human HOP62 cells assessed as cell growth at 1 uM after 1 to 11 days by MTT assay; format: functional; details: read-out: Activity
NCI-H322M = experiment: Cytotoxicity against human NCI-H322M cells assessed as cell growth at 1 uM after 1 to 11 days by MTT assay; format: functional; details: read-out: Activity
SK-MEL-28 [20] = experiment: Cytotoxicity against human SK-MEL-28 cells assessed as cell growth at 1 uM after 1 to 11 days by MTT assay; format: functional; details: read-out: Activity
[21] = read-out: LC50 (the source's name)

Glycogen synthase kinase-3 beta (Homo sapiens), sequence (P49841 whole entry, looked up): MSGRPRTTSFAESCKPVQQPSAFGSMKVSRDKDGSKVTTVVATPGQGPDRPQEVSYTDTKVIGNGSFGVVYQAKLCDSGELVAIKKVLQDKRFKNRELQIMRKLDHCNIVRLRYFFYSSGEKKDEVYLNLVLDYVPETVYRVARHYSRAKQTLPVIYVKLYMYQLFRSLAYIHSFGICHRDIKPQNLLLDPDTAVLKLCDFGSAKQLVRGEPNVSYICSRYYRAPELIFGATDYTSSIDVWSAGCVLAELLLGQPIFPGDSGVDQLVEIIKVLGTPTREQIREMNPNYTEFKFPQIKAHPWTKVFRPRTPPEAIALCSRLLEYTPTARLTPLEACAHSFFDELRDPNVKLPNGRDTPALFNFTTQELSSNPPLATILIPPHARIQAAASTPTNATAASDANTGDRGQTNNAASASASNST

O=C1Nc2ncccc2/C1=C1/Nc2ccccc2/C1=N\O
growth at 1 µM (OVCAR-8 [1]): 85%
growth at 1 µM (ACHN [2]): 95%
growth at 1 µM (SN12C): 89%
growth at 1 µM (MCF7): 91%
growth at 10 µM (SK-MEL-28 [3]): 87%
growth at 10 µM (UACC-257): 114%
growth at 10 µM (UACC-62 [4]): 77%
growth at 10 µM (A498 [5]): 63%
growth at 10 µM (RXF 393): 55%
growth at 10 µM (A549): 91%
growth at 10 µM (NCI-H522 [6]): 99%
growth at 10 µM (HCC 2998): 88%
growth at 100 µM (SK-MEL-5): 49%
growth at 100 µM (UACC-62 [7]): 27%
growth at 10 µM (BT-549): 69%
growth at 100 µM (NCI-H522 [8]): 61%
growth at 100 µM (SF-268): 54%
growth at 100 µM (SNB-19 [9]): 78%
growth at 100 µM (OVCAR-3): 51%
growth at 100 µM (MDA-MB-231 [10]): 40%
growth at 1000 µM (SR): 26%
GI50 (HOP-92 [11]): 2.97 µM
TGI (HOP-92 [11]): > 100 µM
CC50 (HOP-92 [11]; [21]): > 100 µM
GI50 (COLO 205): 1.73 µM
TGI (COLO 205): > 100 µM
CC50 (COLO 205; [21]): > 100 µM
GI50 (HCT-15): 3.67 µM
TGI (HCT-15): > 100 µM
CC50 (HCT-15; [21]): > 100 µM
GI50 (SNB-75): 3.13 µM
TGI (SNB-75): > 100 µM
CC50 (SNB-75; [21]): > 100 µM
GI50 (LOX IMVI): 5.17 µM
TGI (LOX IMVI): > 100 µM
CC50 (LOX IMVI; [21]): > 100 µM
GI50 (M14): 7.95 µM
TGI (M14): > 100 µM
CC50 (M14; [21]): > 100 µM
growth at 1000 µM (OVCAR-8 [12]): 52%
growth at 1000 µM (786-0): 39%
growth at 1000 µM (A498 [13]): 43%
growth at 1000 µM (MDA-MB-231 [14]): 2%
GI50 (SK-MEL-28 [15]): 32.8 µM
TGI (SK-MEL-28 [15]): > 100 µM
CC50 (SK-MEL-28 [15]; [21]): > 100 µM
GI50 (T47D): 2.03 µM
TGI (T47D): > 100 µM
CC50 (T47D; [21]): > 100 µM
GI50 (MDA-MB-468): 3.01 µM
TGI (MDA-MB-468): > 100 µM
CC50 (MDA-MB-468; [21]): > 100 µM
Activity [16]: 18%
growth at 0.1 µM (RPMI-8226): 95%
growth at 0.1 µM (SNB-19 [17]): 94%
growth at 0.1 µM (HOP-92 [18]): 102%
growth at 0.1 µM (OVCAR-5): 89%
growth at 0.1 µM (ACHN [19]): 102%
growth at 1 µM (HOP-62): 100%
growth at 1 µM (NCI-H322M): 82%
growth at 1 µM (SK-MEL-28 [20]): 87%
